# How the values were obtained:
# OF1 mice = test: Maximal electroshock seizure (MES) test; type: in vivo; settings: 10 mg/kg ip; vehicle 100
# Procedure: SAR218645 (30 mg/kg, po) and the reference anticonvulsant agent, diazepam (10 mg/kg), were administered ip to OF1 mice (12–14 g) 30 min prior to test, respectively. An electrical stimulus (60 Hz, 0.8 ms rectangular pulse, 0.4 s duration, 50 mA) was applied to both corneas. The occurrence of tonic extension of the hindlimbs was noted.
# rat mGluR2 = rat mGluR2 (Rattus norvegicus, UniProt P31421); test: [3H]LY341495 binding to membranes; set-up: expressed in transfected cells; host or cells: inducible HEK-293 cell line (membranes)
# Procedure: Binding assay was adapted from Johnson et al.[29]. […] Addition of 5–10 μg membrane protein initiated the incubation. After 45 min at room temperature, the incubation was terminated by rapid filtration followed by scintillation counting. Ki’s were calculated using 4-parameter curve fitting.
# rat mGluR3 = target: T1, rat mGluR3 (Rattus norvegicus, UniProt P31422); test: [3H]LY341495 binding to membranes; settings: Fig. 5C
# T1 construct: expressed in transfected cells; host or cells: inducible HEK-293 cell line (membranes)
# Procedure: Membranes were prepared from an inducible HEK-293 cell line expressing rat mGluR2 or mGluR3. Binding assay was adapted from Johnson et al.[29]. Briefly, [^3H]LY341495 (1.4 nM) was evaluated for binding in the presence or in the absence of orthosteric and allosteric ligands. […] Addition of 5–10 μg membrane protein initiated the incubation. After 45 min at room temperature, the incubation was terminated by rapid filtration followed by scintillation counting. Ki’s were calculated using 4-parameter curve fitting.
# CD-1 mice [1] = test: LY404039-induced turning behavior; type: in vivo; settings: LY341495 0.3 mg/kg ip; P < 0.001
# Procedure: Under light restraint, a single unilateral intracortical infusion of the selective mGluR2/3 receptor agonist, LY404039, was performed in CD-1 mice (25–30 g at arrival). An injection point was assessed using the eyes and back of the skull as landmarks. Immediately following the application of LY404039, the observation period began. The number of contralateral turns elicited in a 5 min period was recorded. SAR218645 was administered orally 60 min before infusion of LY404039 and the potentiation of the turning behavior was noted. The selective mGluR2/3 receptor antagonist, LY341495, was administered ip 90 min prior to infusion of LY404039. Statistical analysis was performed using Kruskal Wallis test followed by a Wilcoxon two-tailed comparison. Ten animals per group were used.
# native mouse mGluR2 = target: T2, native mouse mGluR2 (Mus musculus, UniProt Q14BI2); test: [35S]GTPγS binding to mouse cortex; type: biochemical; settings: glutamate EC20 (1 μM) + SAR218645
# T2 construct: SAR218645 acted as a pure mGluR2 PAM at native mouse mGluR2 in the cortex; from tissue; host or cells: mouse cortex membranes
# Procedure: The assay was performed in 96-well filtration plates in 250 μl total volume. […] For termination of the reaction, the plate was filtered and dried prior to adding 50 μl Microscint 40, and counted on the 1450 TopCount Microbeta Counter. EC50 were calculated using 4-parameter curve fitting.
# Sprague-Dawley rats = test: Amphetamine-induced disruption of auditory evoked potentials (AEP); type: in vivo; settings: 3 mg/kg po; amphetamine 3 mg/kg
# Text: All recordings were made using Spike2 software (Cambridge Electronic Design, Cambridge, UK) running on a Windows PC connected to a 1401 interface (Cambridge Electronic Design, Cambridge, UK). EEG recordings were created by connecting the skull plug to an amplifying head stage (AI 1401, Axon Instruments, Union City, CA, USA), via a 6-channel commutator and cable (Plastics One, Roanoke, VA, USA). The signal was then further amplified with a multichannel amplifier (Cyberamp 380, Axon Instruments, Union City, CA, USA). Auditory stimuli were controlled by the interface via an eight channel power amplifier (SA8, Tucker Davis Technologies, Alachua, FL) connected to a patch panel (PP16, Tucker Davis Technologies), which was connected to speakers located above each cage (TDT Magnetic Speakers, Tucker Davis Technologies). During recording sessions, animals were placed inside standard mouse cages (30 × 15 × 15 cm) and rigged so that the six channel cables could connect with the rest of the apparatus outside of the cage.
# Male Sprague-Dawley rats (150–180 g at arrival) were anesthetized with 3% isoflurane and their scalp was shaved and prepared for surgery. An incision was made in the scalp and the skin was retracted to allow direct contact with the skull surface. The skull was cleaned with a dry Q-tip and five holes were drilled through the skull. Three holes were drilled at coordinates AP + 1 mm, ML + 1 mm (reference); AP−4 mm, ML ± 4 mm (leads 1 and 2) relative to bregma, while an additional hole was drilled in the frontal area (ground) and another hole was drilled at the midpoint between the anterior and posterior coordinate (anchor). […]
# AEP data analysis: Data were collected and analyzed using Spike2 software (CED Software, Cambridge, UK). […] Then a horizontal cursor was placed at the highest and lowest (peak and trough) point of the P1/N1 wave, for both the wave occurring to the first tone (S1) and to the second tone (S2), and the value was recorded into an Excel spreadsheet. […]
# CD-1 mice [2] = test: DOI-induced head-twitch behaviors; type: in vivo; settings: po; DOI 1 mg/kg ip
# Procedure: Male CD-1 mice weighing 25–30 g at the time of testing were used. Animals were brought into the testing area and allowed at least 30 min to acclimatize. The behavior observation was conducted in a wire test chamber measuring 10 cm^3. SAR218645 or the selective 5-HT2A receptor antagonist, volinanserin, was administered po at various times before administration of DOI. DOI was injected ip at a dose of 1 mg/kg. Five minutes later behavioral observation commenced. A trained (blinded) observer continuously watched the mice for 20 min and noted the number of DOI-induced head twitches during this time. The number of head twitches per group was averaged and SAR218645 or volinanserin plus DOI were compared to DOI alone. Three to eight animals per group were used.
# Chain of rat mGluR2 (P31421 19-872): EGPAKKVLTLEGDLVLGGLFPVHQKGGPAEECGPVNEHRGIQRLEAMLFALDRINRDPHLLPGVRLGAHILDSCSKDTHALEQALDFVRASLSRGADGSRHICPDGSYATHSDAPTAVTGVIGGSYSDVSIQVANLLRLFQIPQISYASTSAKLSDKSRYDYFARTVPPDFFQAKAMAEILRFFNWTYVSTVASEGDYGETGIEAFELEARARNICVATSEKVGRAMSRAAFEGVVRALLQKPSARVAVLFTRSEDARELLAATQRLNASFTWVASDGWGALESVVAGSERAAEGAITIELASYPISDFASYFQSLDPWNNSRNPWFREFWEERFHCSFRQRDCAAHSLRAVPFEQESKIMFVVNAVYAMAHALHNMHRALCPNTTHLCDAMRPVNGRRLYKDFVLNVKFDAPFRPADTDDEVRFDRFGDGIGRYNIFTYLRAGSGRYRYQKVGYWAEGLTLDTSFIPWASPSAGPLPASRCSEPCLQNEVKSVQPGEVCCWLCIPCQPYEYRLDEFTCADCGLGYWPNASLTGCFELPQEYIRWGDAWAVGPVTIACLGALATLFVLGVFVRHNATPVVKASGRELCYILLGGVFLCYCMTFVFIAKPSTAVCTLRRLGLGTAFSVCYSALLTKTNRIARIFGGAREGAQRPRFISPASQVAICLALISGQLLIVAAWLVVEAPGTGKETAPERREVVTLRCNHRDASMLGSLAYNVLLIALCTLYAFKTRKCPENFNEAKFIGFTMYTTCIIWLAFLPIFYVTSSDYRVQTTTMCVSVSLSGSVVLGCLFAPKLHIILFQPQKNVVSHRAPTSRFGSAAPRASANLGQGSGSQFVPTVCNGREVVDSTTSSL
# T1 sequence (P31422 23-879): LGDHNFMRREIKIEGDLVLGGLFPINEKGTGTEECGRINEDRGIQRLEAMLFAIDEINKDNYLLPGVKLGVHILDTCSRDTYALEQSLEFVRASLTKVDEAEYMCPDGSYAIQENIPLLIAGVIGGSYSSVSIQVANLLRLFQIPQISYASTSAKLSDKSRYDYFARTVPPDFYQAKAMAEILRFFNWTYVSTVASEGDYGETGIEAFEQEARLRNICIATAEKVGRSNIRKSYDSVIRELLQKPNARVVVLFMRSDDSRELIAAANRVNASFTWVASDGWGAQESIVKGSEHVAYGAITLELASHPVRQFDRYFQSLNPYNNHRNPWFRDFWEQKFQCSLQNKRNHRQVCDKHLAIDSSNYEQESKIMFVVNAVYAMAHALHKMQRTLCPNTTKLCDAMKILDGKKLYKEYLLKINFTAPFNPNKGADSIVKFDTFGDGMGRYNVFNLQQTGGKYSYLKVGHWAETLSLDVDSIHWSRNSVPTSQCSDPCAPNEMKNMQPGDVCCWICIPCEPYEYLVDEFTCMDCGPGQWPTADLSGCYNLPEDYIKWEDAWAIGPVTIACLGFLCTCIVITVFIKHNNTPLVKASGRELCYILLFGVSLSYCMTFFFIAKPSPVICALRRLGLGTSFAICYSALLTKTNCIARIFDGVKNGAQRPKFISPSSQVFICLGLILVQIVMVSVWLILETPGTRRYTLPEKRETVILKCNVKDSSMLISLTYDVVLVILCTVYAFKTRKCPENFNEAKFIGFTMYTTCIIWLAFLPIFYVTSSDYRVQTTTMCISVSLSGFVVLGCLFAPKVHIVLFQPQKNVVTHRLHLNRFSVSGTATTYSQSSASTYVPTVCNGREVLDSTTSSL
# T2 sequence (Q14BI2 19-872): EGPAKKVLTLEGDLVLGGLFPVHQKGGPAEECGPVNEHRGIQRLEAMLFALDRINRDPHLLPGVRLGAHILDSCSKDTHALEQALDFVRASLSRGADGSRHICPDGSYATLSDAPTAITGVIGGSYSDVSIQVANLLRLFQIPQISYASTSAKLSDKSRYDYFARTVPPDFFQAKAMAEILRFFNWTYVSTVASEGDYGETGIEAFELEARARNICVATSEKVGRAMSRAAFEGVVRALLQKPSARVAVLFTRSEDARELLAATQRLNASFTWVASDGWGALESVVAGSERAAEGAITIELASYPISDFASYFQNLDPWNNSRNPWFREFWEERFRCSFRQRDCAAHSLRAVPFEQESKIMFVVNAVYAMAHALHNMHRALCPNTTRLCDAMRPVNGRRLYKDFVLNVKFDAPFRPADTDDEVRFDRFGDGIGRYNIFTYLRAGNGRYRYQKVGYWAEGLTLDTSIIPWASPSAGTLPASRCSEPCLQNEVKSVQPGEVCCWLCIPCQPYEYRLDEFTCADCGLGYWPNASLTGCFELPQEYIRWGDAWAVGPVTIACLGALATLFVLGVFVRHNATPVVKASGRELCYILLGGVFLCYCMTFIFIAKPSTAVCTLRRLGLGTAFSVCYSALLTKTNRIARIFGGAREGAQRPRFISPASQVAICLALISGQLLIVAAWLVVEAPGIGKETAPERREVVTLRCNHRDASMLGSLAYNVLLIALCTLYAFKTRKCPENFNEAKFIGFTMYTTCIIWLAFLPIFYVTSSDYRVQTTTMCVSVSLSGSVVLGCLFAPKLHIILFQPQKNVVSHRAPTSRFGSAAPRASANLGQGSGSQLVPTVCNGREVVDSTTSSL
structure (smiles),measurement,setting,value
"CN1C(=O)CN=C(c2ccccc2)c2cc(Cl)ccc21 [Diazepam, reference compound]",Tonic seizures,OF1 mice,0%
"N[C@@H](CCC(=O)O)C(=O)O [Glutamate, L-glutamatic acid, reference compound]","maximal binding, glutamate alone","rat mGluR2; absence of SAR218645, Fig. 5B",108%
same,Ki,rat mGluR3,0.4 µM
"N[C@](CC1c2ccccc2Oc2ccccc21)(C(=O)O)[C@H]1C[C@@H]1C(=O)O [LY341495, reference compound]",antagonism of the effect of SAR218645 (10 mg/kg) on turning,CD-1 mice [1],blocked
same,antagonism of the SAR218645 potentiation,native mouse mGluR2,blocked
"N[C@@]1(C(=O)O)CS(=O)(=O)[C@H]2[C@H](C(=O)O)[C@H]21 [LY404039, (-)-(1R,4S,5S,6S)-4-amino-2-sulfonylbicyclo[3.1.0]hexane-4,6-dicarboxylic acid, reference compound]",Ki,rat mGluR2; Fig. 5A,0.462 µM
same,Ki,rat mGluR3,0.901 µM
"O=C(Oc1ccc(Br)cc1)N1CCN2CCC1CC2 [SSR180711, reference compound]",effect on amphetamine-disrupted auditory gating (S2/S1 ratio),Sprague-Dawley rats,attenuated amphetamine-induced disrupted gating
"COc1cccc([C@H](O)C2CCN(CCc3ccc(F)cc3)CC2)c1OC [volinanserin, reference compound]",effect on DOI-induced head twitches (reference),CD-1 mice [2],inhibited

# From PMC5062470, “The mGluR2 positive allosteric modulator, SAR218645, improves memory and attention deficits in translational models of cognitive symptoms associated with schizophrenia” (Scientific Reports, 2016)
